From patent US20140018242A1, “METHOD OF CROP ENHANCEMENT” (SYNGENTA PARTICIPATIONS AG, priority 2010, published 2014)

Key:
[1] = system: French beans (Phaseolus vulgaris); experiment: Soil application to French beans, effects on flowering (BBCH) and plant physiology (NDVI, NIR); type: in vivo; design: NIR (Near infrared band reflectance): unit not given here; conditions: 0.01 mg AI per plant drench, mean of 4 reps; for BBCH (plant growth stage): 15DAA, check 57; for NDVI (Normalized difference vegetative index) / NIR (Near infrared band reflectance): 25DAA; for NDVI (Normalized difference vegetative index): check 0.431; for NIR (Near infrared band reflectance): check 4.32
Experimental: Four two week old French bean plants were treated with 0.01 mg Al per plant as soil application (drench). Plants were kept under glasshouse conditions at 22° C. with a photo-period of 14 h. 15DAA the development stage of blossoms was assessed. 25DAA the photosynthetic capacity of plants (NDVI, NIR) was measured.

Soybeans (Glycine max) [2] = experiment: Foliar application to soybeans, effects on water consumption, plant height, chlorophyll content; type: in vivo; conditions: soybean, 26 days after spray; for water consumption: foliar spray 100 ga/ha (EC050) 21 days after sowing, no watering after spray; for plant height / chlorophyll content: foliar spray 100 ga/ha (EC050); for chlorophyll content: third trifoliate-leaf
Experimental: Soybean plants were grown in a climate chamber at 22° C. during 14 h daytime and 20° C. during 10 h night at 70% rel.humidity. Plants were sprayed 21 days after sowing with a 100 ga/ha of the test compound, formulated as a standard EC050. Water status was adjusted befor spray for all pots, and plants not watered anymore after spray. After growing further 26 days in the controlled environment, the plant height, chlorophyll content of the third trifoliate-leaf, and water consumption was determined.

Soybeans (Glycine max) [3] = experiment: Foliar application to soybeans, effects on yield (number and size of pods, root parameters); type: in vivo; conditions: 68 g AI/ha foliar, 29DAA; for No. of root tips, Mean (in %) relative to check / Root length, Mean (in %) relative to check: WinRhizo; for Mean no. of pods per plant, only pods >20 mm: check 1.8; for Mean no. of pods per plant, all pods considered: check 5.4; for pod length - sum per trmt (mm), only pods >20 mm: check 276; for pod length - sum per trmt (mm), all pods considered: check 452
Experimental: Three week old soybean plants (5 replicates) were sprayed with respective test solutions. Test solutions contained the formulated test compound and the adjuvant Mero (0.1% v/v). Plants were kept under glasshouse conditions at 22° C. with a photo-period of 14 h. 29d after application the individual number and size of pods per plant were measured. Additionally, the overall root system of individual plants was scanned and analysed by the image analysis software ‘WinRhizo’ (Regent Instruments Inc., 2009). […] The average number of taller pods (related to number of seeds) was increased.

Spring-wheat = experiment: Foliar application to spring-wheat, effects on water consumption, plant height; type: in vivo; conditions: 26 days after spray; for water consumption: foliar spray 50 ga/ha (EC050) 21 days after sowing, no watering after spray; for plant height: foliar spray 50 ga/ha (EC050)
Experimental: Wheat plants were grown in a climate chamber at 18° C., 14 h daytime and 10 h night, at 70% rel.humidity. Plants were sprayed 21 days after sowing with a 50 ga/ha of the test compound, formulated as a standard EC050. Water status was adjusted before spray for all pots and plants not watered anymore after spray. After growing further 26 days in the controlled environment the plant height, and water consumption was determined.

Soybeans (Glycine max) [4] = experiment: Soil application (drench) to soybeans in rhizoboxes, effects on root system and shoot; type: in vivo; conditions: 30DAA; for Stem thickness (mm) below respective leaf, Mean / leaf area (cm^2), Mean: 0.12 mg AI per plant drench
Experimental: Three two-week old soybean plants were transplanted to ‘rhizoboxes’ (ca. 12 L soil volume). One day later 0.12 mg Al of compound T1.070, wherein G is CO2Et, were applied (drench) to each plant. Plants were kept under glasshouse conditions at 22° C. with a photo-period of 14 h. 30 DAA the entire root system per rhizobox was scanned and analysed by the image analysis software ‘WinRhizo’ (Regent Instruments Inc., 2009).

Barley (Hordeum vulqare) = experiment: Foliar application to barley, plant growth effects (plant height, tillers); type: in vivo; conditions: 12.5 ppm foliar, 9DAA; for av. tillers per plant: check 0
Experimental: Five replicates (pots with three 10d old barley plants each) were sprayed with respective test solutions. Test solutions contained the formulated test compound and the adjuvant Mero (0.1% v/v). Plants were kept under glasshouse conditions at 22° C. with a photo period of 14 h. 9d after application the average plant height per replicate was measured and the number of tillers per replicate was counted. […] Additionally, the number of tillers were increased.

[5] = soybean, drench 0.12 mg AI per plant
[6] = soybean, drench 0.12 mg AI per plant, entire root system per rhizobox, WinRhizo

With CON1CCC2(CC1)C(O)=C(c1c(C)cc(Cl)cc1C)C(=O)N2OC [Compound P2ii.102] the melting point was 88 to 92 °C.

Molecule COCON1C(=O)C(c2c(C)cc(Cl)cc2C)=C(O)C12CCN(OC)CC2 [Compound P2ii.104] has a melting point of 176 to 178 °C.

Molecule CON1CCC2(CC1)C(O)=C(c1c(C)cc(Cl)cc1C)C(=O)N2OC1CCCO1 (centres unmarked) [Compound P2ii.105] has a melting point of 137 to 139 °C.

For CON1CCC2(CC1)C(O)=C(c1c(C)cc(C)cc1C)C(=O)N2C [Compound T1.070], the “BBCH (plant growth stage)” value [1] was 59, the “NDVI (Normalized difference vegetative index)” value [1] was 0.418 and the “NIR (Near infrared band reflectance)” value [1] was 3.81.

For CON1CCC2(CC1)NC(=O)C(c1cc(C)ccc1C)=C2O [Compound T1iii.030], the “BBCH (plant growth stage)” value [1] was 58, the “NDVI (Normalized difference vegetative index)” value [1] was 0.486 and the “NIR (Near infrared band reflectance)” value [1] was 4.98.

In the case of CON1CCC2(CC1)NC(=O)C(c1c(C)cc(C)cc1C)=C2O [Compound T1iii.70], the “BBCH (plant growth stage)” value [1] is reported as 58, the “NDVI (Normalized difference vegetative index)” value [1] is reported as 0.443 and the “NIR (Near infrared band reflectance)” value [1] is reported as 4.92.

In the case of COCON1C(=O)C(c2cc(C)ccc2C)=C(O)C12CCN(OC)CC2 [Compound T20ii.030], the “BBCH (plant growth stage)” value [1] is reported as 58, the “NDVI (Normalized difference vegetative index)” value [1] is reported as 0.427 and the “NIR (Near infrared band reflectance)” value [1] is reported as 4.07.

For COCON1C(=O)C(c2c(C)cc(C)cc2C)=C(O)C12CCN(OC)CC2 [Compound T20ii.070], the “BBCH (plant growth stage)” value [1] was 58, the “NDVI (Normalized difference vegetative index)” value [1] was 0.518 and the “NIR (Near infrared band reflectance)” value [1] was 4.59.

With COCCON1C(=O)C(c2c(C)cc(C)cc2C)=C(O)C12CCN(OC)CC2 [Compound T22ii.070] the “BBCH (plant growth stage)” value [1] was 59, the “NDVI (Normalized difference vegetative index)” value [1] was 0.471 and the “NIR (Near infrared band reflectance)” value [1] was 4.18.

CCOC(=O)OC1=C(c2c(C)cc(Cl)cc2C)C(=O)N(C)C12CCN(OC)CC2 [T1.067, wherein G is CO2Et] gave a water consumption (Soybeans (Glycine max) [2]) of 376 ml/26 days, a plant height (Soybeans (Glycine max) [2]) of 16.5 cm and a chlorophyll content (Soybeans (Glycine max) [2]) of 43.4 reflectance. The “No. of root tips, Mean (in %) relative to check” value (Soybeans (Glycine max) [3]) was 18.8%, the “Root length, Mean (in %) relative to check” value (Soybeans (Glycine max) [3]) was 16.1% and the “Mean no. of pods per plant, only pods >20 mm” value (Soybeans (Glycine max) [3]) was 3.4. The “Mean no. of pods per plant, all pods considered” value (Soybeans (Glycine max) [3]) was 6.0, the “pod length - sum per trmt (mm), only pods >20 mm” value (Soybeans (Glycine max) [3]) was 545 mm and the “pod length - sum per trmt (mm), all pods considered” value (Soybeans (Glycine max) [3]) was 682 mm. It also gave a water consumption (Spring-wheat) of 219 ml/26 days and a plant height (Spring-wheat) of 26.9 cm.

For CCOC(=O)OC1=C(c2c(C)cc(C)cc2C)C(=O)N(C)C12CCN(OC)CC2 [T1.070, wherein G is CO2Et], the “Stem thickness (mm) below respective leaf, Mean” value (from here on “Stem thickness”) (Soybeans (Glycine max) [4]; 1st trifoliate leaf, untreated 2.04) was 2.39 mm, the “leaf area (cm^2), Mean” value (Soybeans (Glycine max) [4]; 1st trifoliate leaf, untreated 42.95) was 60.59 cm^2 and the “Stem thickness” value (Soybeans (Glycine max) [4]; 1st true leaves, untreated 2.31) was 2.87 mm. The “leaf area (cm^2), Mean” value (Soybeans (Glycine max) [4]; 1st true leaves, untreated 28.54) was 39.82 cm^2, the “Stem thickness” value (Soybeans (Glycine max) [4]; 2nd trifoliate leaf, untreated 1.87) was 2.09 mm and the “leaf area (cm^2), Mean” value (Soybeans (Glycine max) [4]; 2nd trifoliate leaf, untreated 58.76) was 72.44 cm^2. For the same molecule, the “Stem thickness” value (Soybeans (Glycine max) [4]; 3rd trifoliate leaf, untreated 1.60) was 1.86 mm, the “leaf area (cm^2), Mean” value (Soybeans (Glycine max) [4]; 3rd trifoliate leaf, untreated 58.01) was 77.72 cm^2 and the “Stem thickness” value (Soybeans (Glycine max) [4]; 4th trifoliate leaf, untreated 1.11) was 1.32 mm. The “leaf area (cm^2), Mean” value (Soybeans (Glycine max) [4]; 4th trifoliate leaf, untreated 18.09) was 27.48 cm^2, the “Shoot growth (plant growth)” value (Soybeans (Glycine max) [4]; [5]) was “Enhanced plant growth was also observed by fortified shoot growth” and the “Visual impression of root system” value (Soybeans (Glycine max) [4]; [5]) was “clearly enhanced root system”. For the same molecule, the “Root parameters relative to check: Length (cm), rel. to check (0%)” value (Soybeans (Glycine max) [4]; [6]) was 41.3%, the “Root parameters relative to check: RootVolume (cm3), rel. to check (0%)” value (Soybeans (Glycine max) [4]; [6]) was 52.2% and the “Root parameters relative to check: SurfaceArea (cm2), rel. to check (0%)” value (Soybeans (Glycine max) [4]; [6]) was 46.6%. The “Root parameters relative to check: Tips, rel. to check (0%)” value (Soybeans (Glycine max) [4]; [6]) was 63.1%, the water consumption (Soybeans (Glycine max) [2]) was 393 ml/26 days and the plant height (Soybeans (Glycine max) [2]) was 17.3 cm. For the same molecule, the chlorophyll content (Soybeans (Glycine max) [2]) was 39.9 reflectance, the “No. of root tips, Mean (in %) relative to check” value (Soybeans (Glycine max) [3]) was 43.7% and the “Root length, Mean (in %) relative to check” value (Soybeans (Glycine max) [3]) was 32.0%. For the same molecule, the “Mean no. of pods per plant, only pods >20 mm” value (Soybeans (Glycine max) [3]) was 3.2, the “Mean no. of pods per plant, all pods considered” value (Soybeans (Glycine max) [3]) was 5.8 and the “pod length - sum per trmt (mm), only pods >20 mm” value (Soybeans (Glycine max) [3]) was 516 mm. The “pod length - sum per trmt (mm), all pods considered” value (Soybeans (Glycine max) [3]) was 674 mm, the water consumption (Spring-wheat) was 208 ml/26 days and the plant height (Spring-wheat) was 27.4 cm.

In the case of CCOC(=O)OC1=C(c2c(C)cc(Br)cc2C)C(=O)NC12CCN(OC)CC2 [T1iii.66, wherein G is CO2Et], the “av. plant height (cm)” value (Barley (Hordeum vulqare)) is reported as 27.2 cm and the “av. tillers per plant” value (Barley (Hordeum vulqare)) is reported as 4.2.

In the case of CCOC(=O)OC1=C(c2c(C)cc(Cl)cc2C)C(=O)NC12CCN(OC)CC2 [T1iii.67, wherein G is CO2Et], the “av. plant height (cm)” value (Barley (Hordeum vulqare)) is reported as 24.4 cm, the “av. tillers per plant” value (Barley (Hordeum vulqare)) is reported as 3.8 and the water consumption (Soybeans (Glycine max) [2]) is reported as 379 ml/26 days. For the same molecule, the plant height (Soybeans (Glycine max) [2]) was 16.5 cm, the chlorophyll content (Soybeans (Glycine max) [2]) was 44.6 reflectance and the water consumption (Spring-wheat) was 218 ml/26 days. The plant height (Spring-wheat) was 27.9 cm.

With CCOC(=O)OC1=C(c2cc(C)ccc2C)C(=O)N(OCOC)C12CCN(OC)CC2 [T20ii.030, wherein G is CO2Et] the “BBCH (plant growth stage)” value [1] was 59, the “NDVI (Normalized difference vegetative index)” value [1] was 0.522 and the “NIR (Near infrared band reflectance)” value [1] was 4.45.

For CCOC(=O)OC1=C(c2c(C)cc(C)cc2C)C(=O)N(OCOC)C12CCN(OC)CC2 [T20ii.070, wherein G is CO2Et], the “BBCH (plant growth stage)” value [1] was 59, the “NDVI (Normalized difference vegetative index)” value [1] was 0.539 and the “NIR (Near infrared band reflectance)” value [1] was 4.65.
